Measurements from patent publication US20140275282A1, “Treating osteopenia and related disorders with geranylgeranyl acetone and derivatives thereof” (COYOTE PHARMACEUTICALS, INC., priority 2013, published 2014).

System: osteoclast-mediated bone resorption
Assay: Inhibition of osteoclast function in vivo by monitoring bone resorption in young growing mice
Settings: young growing mice aged 3-4 weeks, subcutaneous bid for 14 days (5 mg/kg/day)
Description: GGA and derivatives can be tested for their ability to modulate osteoclast function by administering to animals and monitoring bone resorption. One model is to determine the effects on bone resorption of young growing mice as previously described (Schenk et al., Calcif. Tissues Int 38:342-349, 1986; Simonet et al., Cell 89, 308-319, 1997). Young growing mice aged 3-4 weeks, weight range 9.2-15.7 g are divided into groups of ten mice per group. These mice are injected subcutaneously with saline or test compounds bid for 14 days (5 mg/kg/day). The mice are then radiographed before treatment, at day 7 and on day 14. The mice were sacrificed 24 hours after the final injection. The right femur is then removed, fixed in zinc formalin, decalcified in formic acid and embedded in paraffin. Sections are cut through the mid region of the distal femoral metaphysis and the femoral shaft. Bone density, by histomorphometry, is determined in six adjacent regions extending from the metaphyseal limit of the growth plate, through the primary and secondary spongiosa and into the femoral diaphysis (shaft). […] This is a region where bone is rapidly removed by osteoclast-mediated bone resorption in mice. In these rapidly growing young mice, the increase in bone in this region observed with treatment is consistent with an inhibition of bone resorption.

CC(=O)CCC=C(C)CCC=C(C)CCC=C(C)CCC=C(C)C [GGA, Geranylgeranyl acetone]
Radiographic changes: zone of bone density in the spongiosa associated with the growth plates, relative to controls (after seven days of treatment): increased bone density
Histological changes: bone density (histomorphometry) in distal femoral metaphysis, regions 1.1 to 2.65 mm from the growth plate (right femur removed 24 hours after final injection): increased bone density
